# From US10590118B2, “Bicyclic heterocyclic derivatives as bromodomain inhibitors” (Orion Corporation, priority 2014, dated 2020)
# Biological target: T1, Bet bromodomain protein (BRD4) (Homo sapiens, UniProt O60885)
# T1 construct: made in house
# Experiment: Bet bromodomain TR-FRET assay
# Type: binding
# Details: 300 nM acetyl histone peptide substrate, results given as Group A/B/C
# Method: In-Vitro Biochemical Data of bicyclic heterocyclic derivatives in time-resolved fluorescence resonance energy transfer (TR-FRET) assay.
# The Bet brommodomain TR-FRET assay has been used to identify compounds that bind to bet bromodomain and prevent its interaction with acetylated histone peptides.
# In the assay, optimized concentration of in-house Bet bromodomain protein (BRD4) and 300 nM of acetyl histone peptide substrate were diluted in assay buffer (50 mM HEPES, pH: 7.5, 50 mM NaCl, 500 μM CHAPS) and were added to the positive control and test control wells in a 384 well plate. Substrate control wells have 300 nM of acetyl histone peptide substrate diluted in assay buffer. Buffer blank wells were added with assay buffer. The reaction mixture was allowed for incubation at room temperature for 30 mins. Stock solutions of test compounds at 20 mM DMSO are prepared. Compounds are serially diluted and added to the test wells in 384-well polypropylene plates. The reaction mixture was further incubated for 30 mins at room temperature on a plate shaker. 2 nM of Europium labeled streptavidn and 10 nM of XL-665 labeled antibody diluted in detection buffer (50 mM HEPES, pH: 7.5, 50 mM NaCl, 500 μM CHAPS and 800 mM KF) were added to all the wells excluding the buffer blank wells. The reaction plate was incubated for additional 30 mins at room temperature on plate shaker. The plate was read in Perkin Elmer WALLAC 1420 Multilabel Counter Victor 3 (Ex: 340 nm Em: 615 and 665 nm). The amount of displacement of the peptide was measured as ratio of specific 665 nm energy transfer signal to 615 nm signals. The compounds IC50 was determined by fitting the dose response data to sigmoid curve fitting equation using Graph Pad Prism software V5.
row,SMILES,IC50
1,"COc1cc2c(cc1-c1c(C)noc1C)OCC(=O)N2Cc1ccccn1 [Compound 22, 7-(3,5-dimethytisoxazol-4-yl)-6-methoxy-4-(pyridin-2-ylmethyl)-2H-benzo[b][1,4]oxazin-3(4H)-one]",≤ 1000 nM
2,"COc1cc2c(cc1-c1c(C)noc1C)OCC(=O)N2CC1CCOCC1 [Compound 23, 7-(3,5-dimethytisoxazol-4-yl)-6-methoxy-4-((tetrahydro-2H-pyran-4-yl)methyl)-2H-benzo[b][1,4]oxazin-3(4H)-one]",≤ 1000 nM
3,"COc1ccc(CN2C(=O)COc3cc(-c4c(C)noc4C)c(OC)cc32)cn1 [Compound 26, 7-(3,5-dimethylisoxazol-4-yl)-6-methoxy-4-((6-methoxypyridin-3-yl)methyl)-2H-benzo[b][1,4]oxazin-3(4H)-one]",≤ 1000 nM
4,"COc1cc2c(cc1-c1c(C)noc1C)OCC(=O)N2Cc1ccc(C#N)cn1 [Compound 27, 6-((7-(3,5-dimethylisoxazol-4-yl)-6-methoxy-3-oxo-2H-benzo[b][1,4]oxazin-4(3H)-yl)methyl)nicotinonitrile]",1000 to 3000 nM
5,"COc1cc2c(cc1-c1c(C)noc1C)OCC(=O)N2Cc1ccc(Cl)cn1 [Compound 28, 4-((5-chloropyridin-2-yl)methyl)-7-(3,5-dimethylisoxazol-4-yl)-6-methoxy-2H-benzo[b][1,4]oxazin-3(4H)-one]",≤ 1000 nM
6,"COc1cc2c(cc1-c1c(C)noc1C)OCC(=O)N2Cc1ccc(F)cn1 [Compound 29, 7-(3,5-dimethylisoxazol-4-yl)-4-((5-fluoropyridin-2-yl)methyl)-6-methoxy-2H-benzo[b][1,4]oxazin-3(4H)-one]",≤ 1000 nM
7,"COc1ccc(CN2C(=O)COc3cc(-c4c(C)noc4C)c(OC)cc32)nc1 [Compound 30, 7-(3,5-dimethylisoxazol-4-yl)-6-methoxy-4-((5-methoxypyridin-2-yl)methyl)-2H-benzo[b][1,4]oxazin-3(4H)-one]",1000 to 3000 nM
8,COc1cc2c(cc1-c1c(C)noc1C)OCC(=O)N2C(C)c1ccccn1 (centres unmarked) [Compound 31],1000 to 3000 nM
9,"COc1cc2c(cc1-c1c(C)noc1C)OCC(=O)N2Cc1ccc(C)nc1 [Compound 32, 7-(3,5-dimethylisoxazol-4-yl)-6-methoxy-4-((6-methylpyridin-3-yl)methyl)-2H-benzo[b][1,4]oxazin-3(4H)-one]",≤ 1000 nM
10,"COc1cc2c(cc1-c1c(C)noc1C)OCC(=O)N2CCc1ccccn1 [Compound 35, 7-(3,5-dimethylisoxazol-4-yl)-6-methoxy-4-(2-(pyridin-2-yl)ethyl)-2H-benzo[b][1,4]oxazin-3(4H)-one]",1000 to 3000 nM
11,"COc1cc2c(ccc(=O)n2Cc2cccnc2)cc1-c1c(C)noc1C [Compound 36, 6-(3,5-dimethylisoxazol-4-yl)-7-methoxy-1-(pyridin-3-ylmethyl)quinolin-2(1H)-one]",≤ 1000 nM
12,"COc1cc2c(ccc(=O)n2Cc2ccc(Cl)cn2)cc1-c1c(C)noc1C [Compound 37, 1-((5-chloropyridin-2-yl)methyl)-6-(3,5-dimethylisoxazol-4-yl)-7-methoxyquinolin-2(1H)-one]",≤ 1000 nM
13,"COc1cc2c(ccc(=O)n2CCN2CCOCC2)cc1-c1c(C)noc1C [Compound 38, 6-(3,5-dimethylisoxazol-4-yl)-7-methoxy-1-(2-morpholinoethyl)quinolin-2(1H)-one]",≤ 1000 nM
14,"COc1cc2c(ccc(=O)n2Cc2nccs2)cc1-c1c(C)noc1C [Compound 39, 6-(3,5-dimethylisoxazol-4-yl)-7-methoxy-1-(thiazol-2-ylmethyl)quinolin-2(1H)-one]",≤ 1000 nM
15,"COc1cc2c(ccc(=O)n2C(C)c2ccccn2)cc1-c1c(C)noc1C (centres unmarked) [Compound 40, 6-(3,5-dimethytisoxazol-4-yl)-7-methoxy-1-(1-(pyridin-2-yl)ethyl)quinolin-2(1H)-one]",≤ 1000 nM
16,"COc1cc2c(ccc(=O)n2C(C)c2cccnc2)cc1-c1c(C)noc1C (centres unmarked) [Compound 41, 6-(3,5-dimethylisoxazol-4-yl)-7-methoxy-1-(1-(pyridin-3-yl)ethyl)quinolin-2(1H)-one]",≤ 1000 nM
17,"COc1cc2c(ccc(=O)n2CCc2ccccn2)cc1-c1c(C)noc1C [Compound 42, 6-(3,5-dimethylisoxazol-4-yl)-7-methoxy-1-(2-(pyridin-2-yl)ethyl)quinolin-2(1H)-one]",1000 to 3000 nM
18,"COc1cc2c(ccc(=O)n2Cc2ncccn2)cc1-c1c(C)noc1C [Compound 43, 6-(3,5-dimethylisoxazol-4-yl)-7-methoxy-1-(pyrimidin-2-ylmethyl)quinolin-2(1H)-one]",≤ 1000 nM

row,SMILES,IC50
1,"COc1cc2c(ccc(=O)n2Cc2ccncn2)cc1-c1c(C)noc1C [Compound 44, 6-(3,5-dimethylisoxazol-4-yl)-7-methoxy-1-(pyrimidin-4-ylmethyl)quinolin-2(1H)-one]",≤ 1000 nM
2,"COc1cc2c(ccc(=O)n2Cc2ccc(F)cn2)cc1-c1c(C)noc1C [Compound 45, 6-(3,5-dimethylisoxazol-4-yl)-1-((5-fluoropyridin-2-yl)methyl)-7-methoxyquinolin-2(1H)-one]",≤ 1000 nM
3,"COc1cc2c(ccc(=O)n2Cc2ccccn2)cc1-c1c(C)noc1C [Compound 46, 6-(3,5-dimethylisoxazol-4-yl)-7-methoxy-1-(pyridin-2-ylmethyl)quinolin-2(1H)-one]",≤ 1000 nM
4,"COc1cc2c(ccc(=O)n2Cc2ccc(C(F)(F)F)cn2)cc1-c1c(C)noc1C [Compound 47, 6-(3,5-dimethylisoxazol-4-yl)-7-methoxy-1-((5-(trifluoromethyl)pyridin-2-yl)methyl)quinolin-2(1H)-one]",≤ 1000 nM
5,"COc1cc2c(cc1-c1c(C)noc1C)C(C)(C)CC(=O)N2Cc1ccccn1 [Compound 48, 6-(3,5-dimethylisoxazol-4-yl)-7-methoxy-4,4-dimethyl-1-(pyridin-2-ylmethyl)-3,4-dihydroquinolin-2(1H)-one]",> 3000 nM
6,"COc1cc2c(cc1-c1c(C)noc1C)OC(C)(C)C(=O)N2Cc1cccnc1 [Compound 49, 7-(3,5-dimethylisoxazol-4-yl)-6-methoxy-2,2-dimethyl-4-(pyridin-3-ylmethyl)-2H-benzo[b][1,4]oxazin-3(4H)-one]",≤ 1000 nM
7,"COc1cc2c(cc1-c1c(C)noc1C)cc(C)c(=O)n2Cc1ccccn1 [Compound 50, 6-(3,5-dimethylisoxazol-4-yl)-7-methoxy-3-methyl-1-(pyridin-2-ylmethyl)quinolin-2(1H)-one]",≤ 1000 nM
8,"COc1cc2c(cc1-c1c(C)noc1C)C(=O)C(C)(C)C(=O)N2Cc1ccccn1 [Compound 51, 6-(3,5-dimethylisoxazol-4-yl)-7-methoxy-3,3-dimethyl-1-(pyridin-2-ylmethyl)quinoline-2,4(1H,3H)-dione]",1000 to 3000 nM
9,"COc1cc2c(cc1-c1c(C)noc1C)CC(C)(C)C(=O)N2Cc1ccccn1 [Compound 52, 6-(3,5-dimethytisoxazol-4-yl)-7-methoxy-3,3-dimethyl-1-(pyridin-2-ylmethyl)-3,4-dihydroquinolin-2(1H)-one]",> 3000 nM
10,"COc1cc2c(cc1-c1c(C)noc1C)c(C)cc(=O)n2Cc1ccccn1 [Compound 53, 6-(3,5-dimethylisoxazol-4-yl)-7-methoxy-4-methyl-1-(pyridin-2-ylmethyl)quinolin-2(1H)-one]",1000 to 3000 nM
11,"COc1cc2c(cc1-c1c(C)noc1C)c(C(F)(F)F)cc(=O)n2Cc1ccccn1 [Compound 54, 6-(3,5-dimethytisoxazol-4-yl)-7-methoxy-1-(pyridin-2-ylmethyl)-4-(trifluoromethyl)quinolin-2(1H)-one]",> 3000 nM
12,"COc1cc2c(cc1-c1c(C)noc1C)c(C1CC1)cc(=O)n2Cc1ccccn1 [Compound 55, 4-cyclopropyl-6-(3,5-dimethytisoxazol-4-yl)-7-methoxy-1-(pyridin-2-ylmethyl)quinolin-2(1H)-one]",≤ 1000 nM
13,"COc1cc2c(ccc(=O)n2Cc2ccc(Cl)cc2)cc1-c1c(C)noc1C [Compound 56, 1-(4-chlorobenzyl)-6-(3,5-dimethylisoxazol-4-yl)-7-methoxyquinolin-2(1H)-one]",≤ 1000 nM
14,"COc1cc2c(ccc(=O)n2Cc2ccc3ccccc3n2)cc1-c1c(C)noc1C [Compound 57, 6-(3,5-dimethylisoxazol-4-yl)-7-methoxy-1-(quinolin-2-ylmethyl)quinolin-2(1H)-one]",1000 to 3000 nM
15,"COc1cc2c(cc1-c1c(C)noc1C)cc(C)c(=O)n2Cc1ccc(Cl)cn1 [Compound 58, 1-((5-chloropyridin-2-yl)methyl)-6-(3,5-dimethylisoxazol-4-yl)-7-methoxy-3-methylquinolin-2(1H)-one]",≤ 1000 nM
16,"COc1cc2c(cc1-c1c(C)noc1C)cc(C)c(=O)n2CCc1ccc(Cl)cc1 [Compound 59, 1-(4-chlorophenethyl)-6-(3,5-dimethylisoxazol-4-yl)-7-methoxy-3-methylquinolin-2(1H)-one]",≤ 1000 nM
17,"COc1cc2c(cc1-c1c(C)noc1C)OCC(=O)N2CC1CCNCC1 [Compound 60, 7-(3,5-dimethylisoxazol-4-yl)-6-methoxy-4-(piperidin-4-ylmethyl)-2H-benzo[b][1,4]oxazin-3(4H)-one]",> 3000 nM
